From US5441940A, “Process for the preparation of water soluble primycin and its components and pharmaceutical compositions containing them” (Chinoin Gyogyszer es Vegyeszeti Termekek Gyara Rt., priority 1988, dated 1995)

Tests used:
[1] = test system: Bacillus subtilis; assay: Agar diffusion test, minimum inhibitory concentration (MIC) on Bacillus subtilis; assay type: cell-based, Bacillus subtilis ATCC 6633; settings: for MIC: Table II, agar diffusion test on Bacillus subtilis; for biological activity (on Bacillus subtilis): preparation examples
Experimental: Thin layer chromatography was performed on a Kieselgel 60 DC Alufolien F254 plate utilizing the upper phase of a 38:2:10:50 v/v mixture of butanol, ethanol, acetic acid and water as solvent and a mixture of vanillin and sulfuric acid at 105° C. as detecting agent. Biological evaluation was performed by agar diffusion test on Bacillus subtilis.
Agar diffusion technique was applied for the biological evaluation of primycin. As test organism Bacillus subtilis ATCC 6633 was applied.
Bacillus subtilis ATCC 6633 was cultivated on a Schaeffer medium (Nutrient Broth No. 2/oxoid) with the following composition:
The solution was heated in a pressurized vessel for 30 minutes at a pressure of 1.5 atmospheres, thereafter the pE was adjusted to 7.0-7.2 with 5-6 drops of 10N sodium hydroxide solution, 90 ml portions of the solution were poured into cultivating dishes, and the portions were supplemented with 10 ml, each, of the following solutions:
a) 236 mg (10^-3 mole) of Ca(NO3)2. 4H2 O dissolved in 100 ml of distilled water, and
b) […] (10^-5 mole) of MnCl2.4H2 O dissolved in 100 ml of distilled water.
The titrating nutrient medium was prepared as follows:
5 g of meat extract (Beef Extract Difco), 0.5 g of peptone (Bacto Peptone Difco), 1 g of Na2 HPO4 and 0.1 g of KH2 PO4 were dissolved in 100 ml of distilled water, the solution was boiled for 2 hours, and then the pH was adjusted to 8. The warm solution was filtered, allowed to cool, the filtrate was diluted with 900 ml of distilled water, and 20 g of agar (Bacto Agar Difco), dissolved in a Koch pot, were added to 1 liter of the solution. The pH of the warm solution was checked. 100 ml portions of the resulting solution were filled into storage flasks and then heat treated for 20 minutes in a pressurized vessel under a pressure of 1.5 atmospheres. […]
Solutions containing 20-50 /ug/ml of active agent were prepared from the substances to be examined [starting water insoluble primycin; water soluble primycin; a mixture of the compounds of formulae (A1) and (A3); a compound of formula (A1); a compound of formula (A3)] in water or in a 1:1:2 v/v mixture of butanol, ethanol and water, and the resulting solutions were diluted with buffered distilled water (0.15 molar phosphate buffer, pH=7.6) to concentrations of 0.05-0.1, 0.5-1.0 and 2.0 /ug/ml. […] Thereafter the diameters of the diffusive extinction zones were measured in mm, the obtained values were plotted on a semi-logarithmic scale against the concentrations of the standard serial dilutions, and the activity values were determined by extrapolation.

[2] = Gelling of aqueous solutions (concentration-, time- and temperature-dependent); assay type: physicochemical; settings: 5-10 mg/ml aqueous solution of the single component
Experimental: Water soluble primycin has a further very interesting characteristic. It has been observed that its aqueous solution spontaneously gellifies, the gelling time being dependent on the primycin content of the solution. As it appears from the curves of FIG. 1, the complete gelling of a 5-10 mg/ml aqueous primycin solution requires about 1-2 days, that of a 20-40 mg/ml primycin solution requires about 6-12 hours, whereas an aqueous primycin solution comprising more than 50 mg/ml of primycin completely gellifies even within 1-2 hours. The concentration-, time- and temperature-dependent gelling (polymerization) can be attributed presumably to the changes in orientation of the --OH groups in the molecule.
The gelling properties of the individual components of formulae (A1) and (A3) and those of the two-component mixture have also been examined. […] It can be assumed that this delay in gelling is connected with a change in conformation or with the orientation of the hydroxy groups.

[3] = Water solubility; assay type: physicochemical; settings: for water solubility (product containing bound NH4+ and ammonium hydrocarbonate contaminations): before repeated ion exchange chromatography, m.p. 159-161 °C

Compound	MIC [1] [µg/mL]	biological activity (on Bacillus subtilis) ([1]; listed as component of formula (A1))	storage of aqueous solution without any observable change [2]	water solubility (in words) [3]	biological activity (on Bacillus subtilis) [1]	water solubility (product containing bound NH4+ and ammonium hydrocarbonate contaminations) [3]	water solubility (product containing bound NH4+ and ammonium hydrocarbonate contaminations) ([3]; listed as component of formula (A3)) [µg/mL]	Water solubility ([3]; water, listed as component of formula (A3))
CCCCC1C(=O)OC(C(C)C(O)CCCNC(=N)N)C(C)C=C(C)CCCCC(O)CC(O)CC(O)CC(O)CC(O)C(OC2OC(CO)C(O)C2O)C=C(C)C(O)CCCC(O)CCCC(O)CCC(C)C1O (stereo not shown) [Compound of formula (A1)]	0.03 to 0.06	0.03-0.06 /ug/ml	can be stored for days (maximum for one week) without any observable change	well soluble in water				
CCCCC1C(=O)OC(C(C)C(O)CCCNC(=N)N)C(C)C=C(C)CCCCC(O)CC(O)CC(O)CC(O)CC(O)C(OC2OC(CO)C(O)C2O)C=C(C)C(O)CCCC(O)CCCC(O)CCC(C)C1O (stereo not shown) [Compound of formula (A3)]	0.5 to 1.0		can be stored for days (maximum for one week) without any observable change		0.5-1 /ug/ml	about 5 mg/ml	2000 to 6000	about 50 mg/ml
